Where two headings read alike, the source gives them in different places.
Assays:
[1] = test system: Lepeophtheirus salmonis sea lice on salmon (Salmo salar); experiment: Salmon in vivo efficacy trial using gavage administration; conditions: po
Method: Salmon (Salmo salar) were treated once orally by gavage at a dose of 5 mg/kg bodyweight per fish (Day 0). As formulation DMSO 5%/fish oil 95% was used. Salmon of the negative control group received only the excipients of the formulation. The fish were infested with Lepeophtheirus salmonis copepodids twice before treatment (i.e., around day −28 and day −3) and once after treatment (i.e., day 17). […] Around day 28 (end of animal phase), fish were euthanized, and lice on each fish were classified ((pre-)adult or juvenile stage) and counted. […] Efficacy is expressed as a % reduction of sea lice in treated groups versus a control group, using the Abbott's formula.

[2] = test system: Copepodids (juvenile sea lice stage of Lepeophtheirus salmonis); experiment: Juvenile sea lice contact assay; conditions: approximately 24 hours continuous exposure in seawater, read-out: Sea lice inhibition (% of dead+damaged copepodids); for inhibition at 0.0001 µM: test concentration 0.1 nM; for inhibition at 0.1 µM: test concentration 100 nM; for inhibition at 10 pM: test concentration 0.01 nM; for inhibition at 0.001 µM: test concentration 1 nM; for inhibition at 0.01 µM: test concentration 10 nM
Method: Copepodids (juvenile sea lice stage of Lepeophtheirus salmonis) were exposed to seawater spiked with declining concentrations of a test compound (dissolved in a DMSO sea-water mixture). Sea lice inhibition (% of dead+damaged copepodids) was assessed after approximately 24 hours of continuous exposure. The vitality of used parasites was confirmed in a negative (solvent) control group.

[3] = test system: Mobile stages of sea lice (pre-adults, adults of Lepeophtheirus salmonis); experiment: Adult sea lice contact assay; conditions: assessed after approximately 1 and 24 hours of continuous exposure, read-out: EC50 (sea lice inhibition, dead+damaged sea lice)
Method: Mobile stages of sea lice (i.e., pre-adults, adults of Lepeophtheirus salmonis) were exposed to seawater spiked with declining concentrations of a test compound (dissolved in a PEG sea-water mixture). Sea lice inhibition (% of dead+damaged sea lice) was assessed after approximately 1 and 24 hours of continuous exposure in comparison to a negative (solvent) control group.

[4] = 168 h, read-out: therapeutic efficacy against (pre-)adult sea lice (% reduction vs control, Abbott's formula), once orally by gavage 5 mg/kg bodyweight, day -28 infestation, counted at day 7
[5] = 672 h, read-out: therapeutic efficacy against juvenile sea lice (% reduction vs control, Abbott's formula), once orally by gavage 5 mg/kg bodyweight, day -3 infestation, counted around day 28
[6] = 672 h, read-out: prophylactic efficacy at re-infestation on Day 17 (% reduction vs control, Abbott's formula), once orally by gavage 5 mg/kg bodyweight, re-infestation day 17, counted around day 28

Compound	inhibition in vivo at 5 mg/kg [1, 4]	inhibition at 0.0001 µM [2]	EC50 [3]	inhibition in vivo at 5 mg/kg [1, 5]	inhibition at 0.1 µM [2]	inhibition at 10 pM [2]	inhibition at 0.001 µM [2]	inhibition in vivo at 5 mg/kg [1, 6]	inhibition at 0.01 µM [2]
O=C(NCC(F)(F)F)c1cc(NC(=O)[C@H]2[C@H](c3ccc(F)c(F)c3)C2(Cl)Cl)ccc1Cl [Compound 1584]	100%	100%	≤ 1 nM						
N#CC1(NC(=O)c2cc(NC(=O)[C@H]3[C@H](c4ccc(Br)c(Cl)c4)C3(Cl)Cl)ccc2Cl)CC1 [Compound 1585]	100%		1 to 10 nM	100%	100%				
N#CC1(NC(=O)c2cc(NC(=O)[C@H]3[C@H](c4ccc(C(F)F)c(F)c4)C3(Cl)Cl)ccc2Cl)CC1 [Compound 1587]	80%		≤ 1 nM		100%				
O=C(NCC(F)(F)F)c1cc(NC(=O)[C@H]2[C@H](c3cc(Cl)cc(Cl)c3)C2(Cl)Cl)ccc1Cl [Compound 1592]	100%	80%	≤ 1 nM	100%					
O=C(NCC(F)(F)F)c1cc(NC(=O)[C@H]2[C@H](c3cc(F)c(F)c(F)c3)C2(Cl)Cl)ccc1Cl [Compound 1593]	100%		≤ 1 nM	80%		100%			
O=C(NC1CC(F)(F)C1)c1cc(NC(=O)[C@H]2[C@H](c3cccc(C(F)(F)F)c3)C2(Cl)Cl)ccc1Cl [Compound 1601]	100%		1 to 10 nM	100%			100%		
N#CC1(NC(=O)c2cc(NC(=O)C3C(c4cc(Cl)cc(Cl)c4)C3(Cl)Cl)ccc2F)CC1 (centres unmarked) [Compound 1605]	100%		≤ 1 nM	100%		100%			
N#CC1(NC(=O)c2cc(NC(=O)[C@H]3[C@H](c4ccc(Cl)c(F)c4)C3(Cl)Cl)ccc2Cl)CC1 [Compound 1606]	100%		10 to 25 nM	100%	100%				
N#CC1(NC(=O)c2cc(NC(=O)[C@H]3[C@H](c4ccc(F)c(Cl)c4)C3(Cl)Cl)ccc2Cl)CC1 [Compound 1608]	100%		≤ 1 nM	100%		100%			
N#CC1(NC(=O)c2cc(NC(=O)[C@H]3[C@H](c4cc(Cl)c(F)c(Cl)c4)C3(Cl)Cl)ccc2Cl)CC1 [Compound 1609]	100%		1 to 10 nM	100%				100%	100%
C#CC1(NC(=O)c2cc(NC(=O)[C@H]3[C@H](c4cc(Cl)cc(Cl)c4)C3(Cl)Cl)cc(F)c2F)CC1 [Compound 1617, 5-((1R,3R)-2,2-dichloro-3-(3,5-dichlorophenyl)cyclopropane-1-carboxamido)-N-(1-ethynylcyclopropyl)-2,3-difluorobenzamide]	100%		≤ 1 nM	100%	100%			100%	
O=C(NC1CC1)c1cc(NC(=O)[C@H]2[C@H](c3cc(Cl)cc(Cl)c3)C2(Cl)Cl)cc(F)c1F [Compound 1618]	100%		≤ 1 nM	100%				100%	100%
CC1(NC(=O)c2cc(NC(=O)[C@H]3[C@H](c4cc(Cl)cc(Cl)c4)C3(Cl)Cl)ccc2Cl)CC1 [Compound 1619]	100%		≤ 1 nM	80%					100%
C#CC1(NC(=O)c2cc(NC(=O)[C@H]3[C@H](c4cc(Cl)cc(Cl)c4)C3(Cl)Cl)ccc2Cl)CC1 [Compound 1620, 2-chloro-5-((1R,3R)-2,2-dichloro-3-(3,5-dichlorophenyl)cyclopropane-1-carboxamido)-N-(1-ethynylcyclopropyl)benzamide]	100%		≤ 1 nM	80%					100%
O=C(NC1CC1)c1cc(NC(=O)[C@H]2[C@H](c3cc(Cl)cc(Cl)c3)C2(Cl)Cl)ccc1Cl [Compound 1621]	100%		≤ 1 nM	80%					100%
C#CCNC(=O)c1cc(NC(=O)[C@H]2[C@H](c3cc(Cl)cc(Cl)c3)C2(Cl)Cl)ccc1Cl [Compound 1622]	100%		≤ 1 nM						≥ 80%
N#CC1(NC(=O)c2cc(NC(=O)[C@H]3[C@H](c4cc(F)c(F)c(F)c4)C3(Cl)Cl)ccc2F)CC1 [Compound 1623]	100%	100%	1 to 10 nM	80%					
N#CC1(NC(=O)c2cc(NC(=O)[C@H]3[C@H](c4cc(F)c(F)c(F)c4)C3(Cl)Cl)ccc2Cl)CC1 [Compound 1624]	100%	100%	1 to 10 nM	80%				80%	
O=C(NC1CC(F)(F)C1)c1cc(NC(=O)[C@H]2[C@H](c3cc(Cl)cc(Cl)c3)C2(Cl)Cl)ccc1Cl [Compound 1625]	100%		≤ 1 nM	100%	100%			100%	
CC1(NC(=O)c2cc(NC(=O)[C@H]3[C@H](c4cc(Cl)cc(Cl)c4)C3(Cl)Cl)ccc2F)CC1 [Compound 1626]	100%		1 to 10 nM	80%					≥ 80%
O=C(NC1CC(F)(F)C1)c1cc(NC(=O)[C@H]2[C@H](c3cc(Cl)cc(Cl)c3)C2(Cl)Cl)cc(F)c1F [Compound 1628]	100%		1 to 10 nM	100%				100%	100%
O=C(NC1CC(F)(F)C1)c1cc(NC(=O)[C@H]2[C@H](c3cc(Cl)cc(Cl)c3)C2(Cl)Cl)ccc1F [Compound 1630]	100%		≤ 1 nM	100%				100%	100%
O=C(NC1CC1)c1cc(NC(=O)[C@H]2[C@H](c3cc(Cl)cc(Cl)c3)C2(Cl)Cl)ccc1F [Compound 1632]	100%		≤ 1 nM	80%		80%			
C#CC1(NC(=O)c2cc(NC(=O)[C@H]3[C@H](c4cc(Cl)cc(Cl)c4)C3(Cl)Cl)ccc2F)CC1 [Compound 1633, 5-((1R,3R)-2,2-dichloro-3-(3,5-dichlorophenyl)cyclopropane-1-carboxamido)-N-(1-ethynylcyclopropyl)-2-fluorobenzamide]	100%		≤ 1 nM	100%			80%	80%	
